Test results reported in patent publication US9145354B2, “Pharmaceutical compounds” (priority 2011, dated 2015).
Structures can show the parent of a compound that is named as a salt. Where two headings read alike, the source gives them in different places.

Target: full length NS3/4a (Hepatitis C virus genotype 1b (isolate BK) (HCV), UniProt P26663)
Assay: NS3 Protease Assay (Example A), FRET-based
Format: biochemical
Description: The HCV NS3 protease functions have been extensively studied and are considered as potential targets for antiviral therapy: see for example the many references listed in the introductory section of this application. Therefore, the activity of the compounds of the invention as anti-HCV agents was assessed using a full length HCV NS3 protease.
The protease activity of the full length NS3/4a was measured using a FRET-based assay utilizing a peptide substrate derived from the NS4A/B cleavage site (Anaspec) and labelled at one end with a quencher (QXL520) and at the other with a fluorophore (5-FAMsp). NS3/4a (produced in-house by literature methods) was incubated with test compounds and peptide substrate in 50 mM Tris pH8, 20 mM DTT, 1% CHAPS, 10% glycerol and 5% DMSO. The reaction was followed by monitoring the change in fluorescence on a Molecular Devices Gemini plate reader for 30 minutes at room temperature. Initial rates were calculated from the progress curves using SoftMax Pro (Molecular Devices). IC50 values were then calculated from replicate curves using Prism GraphPad software.

[1] = read-out: IC50 against the protease activity of the full length NS3/4a
[2] = HCV NS3 protease assay, full length NS3/4a, read-out: Assay A IC50 (μM) average
[3] = stated as IC50 less than 30 μM or at least 40% inhibition at a concentration of 100 μM, read-out: IC50 against the protease activity of the full length NS3/4a

full length NS3/4a, sequence (P26663 1027-1657): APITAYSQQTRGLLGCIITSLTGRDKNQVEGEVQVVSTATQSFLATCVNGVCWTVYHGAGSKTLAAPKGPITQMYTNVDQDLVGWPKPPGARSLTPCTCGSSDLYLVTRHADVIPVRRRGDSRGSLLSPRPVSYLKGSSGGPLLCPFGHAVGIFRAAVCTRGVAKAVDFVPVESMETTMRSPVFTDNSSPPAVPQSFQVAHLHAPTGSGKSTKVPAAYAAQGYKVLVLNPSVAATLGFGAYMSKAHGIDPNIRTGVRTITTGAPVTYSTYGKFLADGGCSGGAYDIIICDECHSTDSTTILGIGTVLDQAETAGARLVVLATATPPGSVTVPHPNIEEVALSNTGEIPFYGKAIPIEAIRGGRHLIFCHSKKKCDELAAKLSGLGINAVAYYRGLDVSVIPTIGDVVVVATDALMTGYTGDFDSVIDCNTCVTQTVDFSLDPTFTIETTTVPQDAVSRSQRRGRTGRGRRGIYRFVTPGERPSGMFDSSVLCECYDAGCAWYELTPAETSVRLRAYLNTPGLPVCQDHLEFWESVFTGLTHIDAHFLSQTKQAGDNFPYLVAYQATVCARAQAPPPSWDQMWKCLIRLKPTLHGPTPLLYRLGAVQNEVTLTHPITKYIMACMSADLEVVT

Structure (SMILES)	IC50 [1] [µM]	IC50 [2] [µM]	further results
CC[C@@H](N)c1ccc(Cl)c(C(=O)c2ccc(C#N)nc2)c1F [Example 34, 5-({3-[(1R)-1-aminopropyl]-6-chloro-2-fluorophenyl}carbonyl)pyridine-2-carbonitrile]	1 to 5	–	inhibition at 3 µM: 55%
CC[C@@H](N)c1ccc(Cl)c(C(=O)c2ccc(N(C)C)nc2)c1F [Example 35, 5-({3-[(1R)-1-aminopropyl]-6-chloro-2-fluorophenyl}carbonyl)-N,N-dimethylpyridin-2-amine]	–	–	inhibition at 10 µM: 30%
CC[C@@H](N)c1ccc(Cl)c(C(=O)c2ccc(NC)nc2)c1F [Example 36, 5-({3-[(1R)-1-aminopropyl]-6-chloro-2-fluorophenyl}carbonyl)-N-methylpyridin-2-amine]	< 1	0.71	–
CC[C@@H](N)c1ccc(Cl)c(C(=O)c2ccc(-n3cccn3)nc2)c1F [Example 37, (1R)-1-(4-chloro-2-fluoro-3-{[6-(1H-pyrazol-1-yl)pyridin-3-yl]carbonyl}phenyl)propan-1-amine]	< 1	0.49	–
CC[C@@H](N)c1ccc(Cl)c(C(=O)c2ccc(=O)[nH]c2)c1F [Example 38, 5-({3-[(1R)-1-aminopropyl]-6-chloro-2-fluorophenyl}carbonyl)-1,2-dihydropyridin-2-one]	1 to 5	3.6	–
CC[C@@H](N)c1ccc(C)c(C(=O)c2ccccc2)c1F [Example 39, (1R)-1-(3-benzoyl-2-fluoro-4-methylphenyl)propan-1-amine]	< 1	0.73	–
CC[C@@H](N)c1ccc(OC)c(C(=O)c2ccccc2)c1F [Example 40, (1R)-1-(3-benzoyl-2-fluoro-4-methoxyphenyl)propan-1-amine]	< 1	0.84	–
CC[C@@H](N)c1ccc(Cl)c(C(=O)c2cc[n+]([O-])cc2)c1F [Example 42, [3-((R)-1-Amino-propyl)-6-chloro-2-fluoro-phenyl]-(1-oxy-pyridin-4-yl)-methanone]	< 1	0.53	–
CC[C@@H](N)c1ccc(F)c(C(=O)c2ccccc2)c1F [Example 43, (1R)-1-(3-benzoyl-2,4-difluorophenyl)propan-1-amine]	< 1	0.74	–
CC[C@@H](N)c1ccc(O)c(C(=O)c2ccccc2)c1F [Example 44, 4-[(1R)-1-aminopropyl]-2-benzoyl-3-fluorophenol]	–	–	inhibition at 100 µM (@ 100 uM): 30%
CC[C@@H](N)c1ccc(Cl)c(C(=O)c2cncc(N)c2)c1F [Example 45, 5-({3-[(1R)-1-aminopropyl]-6-chloro-2-fluorophenyl}carbonyl)pyridin-3-amine]	–	–	inhibition at 10 µM: 50%; IC50 [3]: < 30 µM
CC[C@@H](N)c1ccc(Cl)c(C(=O)c2ccc(-n3cc(CO)cn3)nc2)c1F [Example 46, {1-[5-({3-[(1R)-1-aminopropyl]-6-chloro-2-fluorophenyl}carbonyl)pyridin-2-yl]-1H-pyrazol-4-yl}methanol]	–	–	inhibition at 10 µM: 64%; IC50 [3]: < 30 µM
Nc1ccc(C(=O)c2c(Cl)ccc([C@H](N)C3CC3)c2F)cn1 [Example 47, 5-({3-[(R)-amino(cyclopropyl)methyl]-6-chloro-2-fluorophenyl}carbonyl)pyridin-2-amine]	< 1	0.18	–
CC[C@@H](N)c1ccc(Cl)c(C(=O)c2ccc(COC(C)=O)cc2)c1F [Example 49, [4-({3-[(1R)-1-aminopropyl]-6-chloro-2-fluorophenyl}carbonyl)phenyl]methyl acetate]	< 1	0.15	–
CC[C@@H](N)c1ccc(Cl)c(C(=O)c2ccc(CO)cc2)c1F [Example 50, [4-({3-[(1R)-1-aminopropyl]-6-chloro-2-fluorophenyl}carbonyl)phenyl]methanol]	< 1	0.21	–
CC[C@@H](N)c1ccc(Cl)c(C(=O)c2cnc(SC)nc2)c1F [Example 51, (1R)-1-(4-chloro-2-fluoro-3-{[2-(methylsulfanyl)pyrimidin-5-yl]carbonyl}phenyl)propan-1-amine]	–	–	inhibition at 3 µM: 44%; IC50 [3]: < 30 µM
CC[C@@H](N)c1ccc(Cl)c(C(=O)c2ccnc(N)c2)c1F [Example 52, 4-({3-[(1R)-1-aminopropyl]-6-chloro-2-fluorophenyl}carbonyl)pyridin-2-amine]	< 1	0.77	–
CC[C@@H](N)c1ccc(Cl)c(C(=O)c2cccc(CO)c2)c1F [Example 54, [3-({3-[(1R)-1-aminopropyl]-6-chloro-2-fluorophenyl}carbonyl)phenyl]methanol]	< 1	0.14	–

Structure (SMILES)	IC50 [1] [µM]	IC50 [2] [µM]	further results
CC[C@@H](N)c1ccc(Cl)c(C(=O)c2cn[nH]c2)c1F [Example 55, (1R)-1-{4-chloro-2-fluoro-3-[(1H-pyrazol-4-yl)carbonyl]phenyl}propan-1-amine]	1 to 5	4.4	–
Nc1cnc(C(=O)c2c(Cl)ccc([C@H](N)C3CC3)c2F)cn1 [Example 56, 5-({3-[(R)-amino(cyclopropyl)methyl]-6-chloro-2-fluorophenyl}carbonyl)pyrazin-2-amine]	< 1	0.6	–
CC[C@@H](N)c1ccc(Cl)c(C(=O)c2cnc(NC)cn2)c1F [Example 57, 5-({3-[(1R)-1-aminopropyl]-6-chloro-2-fluorophenyl}carbonyl)-N-methylpyrazin-2-amine]	1 to 5	4.6	–
CC[C@@H](N)c1ccc(Cl)c(C(=O)c2ccc3c(n2)NC(=O)CO3)c1F [Example 58, 6-({3-[(1R)-1-aminopropyl]-6-chloro-2-fluorophenyl}carbonyl)-2H,3H,4H-pyrido[3,2-b][1,4]oxazin-3-one]	–	–	inhibition at 10 µM: 31%
CC[C@@H](N)c1ccc(Cl)c(C(=O)c2ccc3c(c2)OCC(=O)N3)c1F [Example 60, 7-({3-[(1R)-1-Aminopropyl]-6-chloro-2-fluorophenyl}-carbonyl)-3,4-dihydro-2H-1,4-benzoxazin-3-one]	< 1	0.55	–
Nc1ccc(C(=O)c2c(Cl)ccc([C@H](N)C3CC3)c2F)nc1 [Example 61, 6-({3-[(R)-amino(cyclopropyl)methyl]-6-chloro-2-fluorophenyl}carbonyl)pyridin-3-amine]	1 to 5	1.2	–
N#Cc1ccc(C(=O)c2c(Cl)ccc([C@H](N)C3CC3)c2F)nc1 [Example 62, 6-({3-[(R)-amino(cyclopropyl)methyl]-6-chloro-2-fluorophenyl}carbonyl)pyridine-3-carbonitrile]	< 1	0.32	–
CC[C@@H](N)c1ccc(Cl)c(C(=O)c2ccc([N+](=O)[O-])c(C)c2)c1F [Example 64, (1R)-1-{4-chloro-2-fluoro-3-[(3-methyl-4-nitrophenyl)carbonyl]phenyl}propan-1-amine]	–	–	inhibition at 0.1 µM (@ 0.1 uM): 44%
CC[C@@H](N)c1ccc(Cl)c(C(=O)c2ccc3c(c2)OCCN3)c1F [Example 65, (1R)-1-{4-chloro-3-[(3,4-dihydro-2H-1,4-benzoxazin-7-yl)carbonyl]-2-fluorophenyl}propan-1-amine]	–	0.16	–
CCC[C@@H](N)c1ccc(Cl)c(C(=O)c2ccc(N)nc2)c1F [Example 66, 5-({3-[(1R)-1-aminobutyl]-6-chloro-2-fluorophenyl}carbonyl)pyridin-2-amine]	–	0.2	–
C=CC[C@@H](N)c1ccc(Cl)c(C(=O)c2ccc(N)nc2)c1F [Example 67, 5-({3-[(1R)-1-aminobut-3-en-1-yl]-6-chloro-2-fluorophenyl}carbonyl)pyridin-2-amine]	–	0.37	–
N[C@@H](c1ccc(Cl)c(C(=O)c2ccc(CO)cc2)c1F)C1CC1 [Example 68, [4-({3-[(R)-amino(cyclopropyl)methyl]-6-chloro-2-fluorophenyl}-carbonyl)phenyl]methanol hydrochloride]	–	0.21	–
CC[C@@H](N[C@H](C)CC(N)=O)c1ccc(Cl)c(C(=O)c2ccc(N)nc2)c1F [Example 82, (3R)-3-{[(1R)-1-{3-[(6-aminopyridin-3-yl)carbonyl]-4-chloro-2-fluorophenyl}propyl]-amino}butanamide]	–	0.83	–
CC[C@@H](N[C@H](C)CC(N)=O)c1ccc(Cl)c(C(=O)c2ccccc2)c1F [Example 83, (3R)-3-{[(1R)-1-(3-benzoyl-4-chloro-2-fluorophenyl)propyl]-amino}butanamide]	–	0.5	–
CC[C@H](N[C@H](C)CC(N)=O)c1ccc(Cl)c(C(=O)c2ccccc2)c1F [Example 85, (3R)-3-{[(1S)-1-(3-benzoyl-4-chloro-2-fluorophenyl)-propyl]-amino}butanamide]	–	0.061	–
CC[C@H](N[C@@H](C)CC(N)=O)c1ccc(Cl)c(C(=O)c2ccccc2)c1F [Example 86, (3S)-3-{[(1S)-1-(3-benzoyl-4-chloro-2-fluorophenyl)-propyl]amino}butanamide]	1 to 5	1	–
CC[C@@H](N[C@H](C)CC(=O)NCCN)c1ccc(Cl)c(C(=O)c2ccccc2)c1F [Example 87, (3R)—N-(2-Aminoethvl)-3-{[(1R)-1-(3-benzoyl-4-chloro-2-fluorophenyl)propyl]-amino}butanamide]	–	–	inhibition at 0.01 µM (@ 0.01 uM): 54%
CC[C@H](N[C@@H](C)CC(=O)NCCN)c1ccc(Cl)c(C(=O)c2ccccc2)c1F [Example 89, (3S)-N-(2-aminoethyl)-3-{[(1S)-1-(3-benzoyl-4-chloro-2-fluorophenyl)propyl]-amino}butanamide]	–	–	inhibition at 0.03 µM (@ 0.03 uM): 54%
